Laboratory results as given in ChEMBL document CHEMBL1201862, “PubChem BioAssay data set” (2004).
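Following 48 hours of exposure in 96-well plates, responses at five concentrations were used to interpolate endpoints linearly. The concentration for 50% growth inhibition is given as GI50.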 The source made the active and inactive calls. Cut-off read from the data, not from the text of the source: active = GI50 up to about 1.1 µM and inactive = higher.

Legend:
Assay in all cases: NCI tumour cell line growth inhibition, 48 h
[1] = test system: RPMI-8226
[2] = test system: IGROV-1
[3] = test system: SNB-19
[4] = test system: COLO 205
[5] = test system: MDA-N
[6] = test system: MDA-MB-435
[7] = test system: SR
[8] = test system: HOP-62
[9] = test system: HCT-15
[10] = test system: TK-10
[11] = test system: LOX IMVI
[12] = test system: SN12C
[13] = test system: SW-620
[14] = test system: ACHN
[15] = test system: CCRF-CEM
[16] = test system: M19-MEL
[17] = test system: SF-539
[18] = test system: MCF7
[19] = test system: A549
[20] = test system: UO-31

Compound	GI50 [1]	GI50 [2]	GI50 [3]	GI50 [4]	GI50 [5]	GI50 [6]	GI50 [7]	GI50 [8]	GI50 [9] [µM]	GI50 [10]	GI50 [11]	GI50 [12]	GI50 [13]	GI50 [14]	GI50 [15]	GI50 [16]	GI50 [17]	GI50 [18]	GI50 [19]	GI50 [20]
CCCCCCCCOC(=O)c1cc([N+](=O)[O-])c(Sc2[nH]cnc3ncnc2-3)c([N+](=O)[O-])c1	0.512 µM (active)	4.07 µM (inactive)	18.1 µM (inactive)	1.6 µM (inactive)	1.35 µM (inactive)	2.06 µM (inactive)	1.1 µM (active)	3.03 µM (inactive)	2.23	1.85 µM (inactive)	0.296 µM (active)	2.33 µM (inactive)	1.76 µM (inactive)	2.92 µM (inactive)	0.288 µM (active)	6.38 µM (inactive)	2 µM (inactive)	1.59 µM (inactive)	7.98 µM (inactive)	3.85 µM (inactive)
CCOc1ccc(/N=N/c2c(-c3ccccc3)nn(C(=O)CC(=O)Nc3ccccc3Cl)c2-c2ccccc2)cc1	37.4 µM (inactive)	> 100 µM (inactive)	> 100 µM (inactive)	64.9 µM (inactive)	–	–	72.8 µM (inactive)	93.8 µM (inactive)	–	74.6 µM (inactive)	42.2 µM (inactive)	> 100 µM (inactive)	> 100 µM (inactive)	33.3 µM (inactive)	25.4 µM (inactive)	54.8 µM (inactive)	58.3 µM (inactive)	–	67.3 µM (inactive)	28.9 µM (inactive)
COc1c(-c2ccccc2)nc2ccc(Oc3ccccc3)nn12	7.6 µM (inactive)	> 93.8 µM (inactive)	> 84.5 µM (inactive)	> 44.7 µM (inactive)	–	–	13.8 µM (inactive)	> 100 µM (inactive)	17.7	> 100 µM (inactive)	> 72.9 µM (inactive)	> 56.6 µM (inactive)	> 75.7 µM (inactive)	> 58.7 µM (inactive)	8.65 µM (inactive)	> 64.3 µM (inactive)	> 59.4 µM (inactive)	–	> 57.5 µM (inactive)	> 61.8 µM (inactive)
CC(NC(=O)c1ccccc1)C(=O)N(Cc1ccccc1)Cc1ccccc1 (stereo not drawn)	21 µM (inactive)	34 µM (inactive)	36.1 µM (inactive)	19.2 µM (inactive)	–	–	29.9 µM (inactive)	25.1 µM (inactive)	32.1	60.1 µM (inactive)	22.1 µM (inactive)	37.4 µM (inactive)	51.1 µM (inactive)	31.7 µM (inactive)	21.6 µM (inactive)	24.4 µM (inactive)	55.3 µM (inactive)	–	30.2 µM (inactive)	27.5 µM (inactive)
O=C1C=Cc2c(-c3ccccc3)oc3cccc1c23	3.97 µM (inactive)	15.8 µM (inactive)	24 µM (inactive)	15.8 µM (inactive)	–	–	10.1 µM (inactive)	13.8 µM (inactive)	5.97	39.7 µM (inactive)	11.2 µM (inactive)	9.82 µM (inactive)	18.7 µM (inactive)	13.2 µM (inactive)	15 µM (inactive)	23 µM (inactive)	12 µM (inactive)	–	6.98 µM (inactive)	6.35 µM (inactive)
C1CCN(c2nc(=[N+]3CCCCC3)ss2)CC1	> 100 µM (inactive)	> 100 µM (inactive)	> 100 µM (inactive)	–	–	–	> 100 µM (inactive)	> 100 µM (inactive)	> 100	> 100 µM (inactive)	41.1 µM (inactive)	> 100 µM (inactive)	> 100 µM (inactive)	> 100 µM (inactive)	43.7 µM (inactive)	> 100 µM (inactive)	> 100 µM (inactive)	–	55.8 µM (inactive)	> 100 µM (inactive)
C/C=C/COC(=O)CO[N+](=O)[O-]	> 100 µM (inactive)	> 100 µM (inactive)	> 100 µM (inactive)	> 100 µM (inactive)	–	–	> 100 µM (inactive)	> 100 µM (inactive)	> 100	> 100 µM (inactive)	> 100 µM (inactive)	> 100 µM (inactive)	> 100 µM (inactive)	> 100 µM (inactive)	> 100 µM (inactive)	> 100 µM (inactive)	> 100 µM (inactive)	–	> 100 µM (inactive)	> 100 µM (inactive)
CCCCCCC(C)CCCCCCCCCCC(=O)O (stereo not drawn)	> 100 µM (inactive)	> 100 µM (inactive)	> 100 µM (inactive)	> 100 µM (inactive)	–	–	> 100 µM (inactive)	> 100 µM (inactive)	–	> 100 µM (inactive)	> 100 µM (inactive)	> 100 µM (inactive)	> 100 µM (inactive)	> 100 µM (inactive)	> 100 µM (inactive)	> 100 µM (inactive)	> 100 µM (inactive)	–	> 100 µM (inactive)	> 100 µM (inactive)
CCCCC(/C=N/NC(=N)N)CC.Cc1cc(O)c(C(C)C)cc1S(=O)(=O)O	38.8 µM (inactive)	92.9 µM (inactive)	60 µM (inactive)	18.2 µM (inactive)	–	–	21.9 µM (inactive)	39.7 µM (inactive)	85.7	61.7 µM (inactive)	57.1 µM (inactive)	97.5 µM (inactive)	27 µM (inactive)	56.6 µM (inactive)	56.2 µM (inactive)	48.3 µM (inactive)	87.5 µM (inactive)	–	65.8 µM (inactive)	59.8 µM (inactive)
